# Reference: patent publication EP0384722A1, “Chemical compositions” (PITMAN-MOORE LIMITED, priority 1989, dated 1990)
# Read-outs that look alike come from different tables or passages of the source.
# Assays:
# [1] = Comparison of bioavailability of Compound A and Trimethoprim (TMP) administered by i/v injection, dogs; type: in vivo; conditions: i/v injection at 2 mg/kg; for half-life: both sexes, dog, read-out: Est.t1/2 (converted); for half-life / concentration at 0 h / concentration at 1 h / concentration at 3 h / concentration at 5 h / concentration at 7 h / concentration at 24 h / concentration at 30 h / concentration at 48 h: beagle, intravenous, serum; for concentration at 0 h: 0 hours post inj.; for concentration at 1 h: 1 hours post inj.; for concentration at 3 h: 3 hours post inj.; for concentration at 5 h: 5 hours post inj.; for concentration at 7 h: 7 hours post inj.; for concentration at 24 h: 24 hours post inj.; for concentration at 30 h: 30 hours post inj.; for concentration at 48 h: 48 hours post inj.
# Description: One male beagle dog, 13.5 kg and one female beagle, 11.1kg, both aged about 18 months, received i/v injections (cephalic vein) of the test compounds at 2mg base/kg, using 15mg base /ml aqueous solutions.
# [2] = Comparison of bioavailability of Compound A and Trimethoprim (TMP) administered by i/v injection, cats; type: in vivo; conditions: serum, i/v injection at 2 mg/kg; for Est.t1/2 / half-life: cats; for half-life / concentration at 0 h / concentration at 1 h / concentration at 3 h / concentration at 5 h / concentration at 7 h / concentration at 24 h: female, cat, intravenous; for half-life: read-out: Est.t1/2 (converted); for concentration at 0 h / concentration at 1 h / concentration at 3 h / concentration at 5 h / concentration at 7 h / concentration at 24 h: 2 mg/kg; for concentration at 0 h: 0 hours post inj.; for concentration at 1 h: 1 hours post inj.; for concentration at 3 h: 3 hours post inj.; for concentration at 5 h: 5 hours post inj.; for concentration at 7 h: 7 hours post inj.; for concentration at 24 h: 24 hours post inj.
# Description: Two young adult female cats, bodyweight around 3 kg, were given i/v injections at 2 mg/kg of TMP or Compound A, using 3 mg/base ml aqueous solutions.
# [3] = female, dog F, read-out: Serum conc. of TMP
# [4] = male, dog M, read-out: Serum conc. of TMP
# [5] = cat 1, read-out: Serum conc. of TMP
# [6] = cat 2, read-out: Serum conc. of TMP
# [7] = female, dog F, read-out: Serum conc. of Compound A
# [8] = male, dog M, read-out: Serum conc. of Compound A
# [9] = cat 3, read-out: Serum conc. of Compound A
# [10] = cat 4, read-out: Serum conc. of Compound A
smiles,measurement,setting,value
"COc1cc(Cc2cnc(N)nc2N)cc(OC)c1OC [TMP, trimethoprim]",half-life,[1]; dogs,2.6 h
same,concentration at 0 h,[1]; [3],0 ng/mL
same,concentration at 1 h,[1]; [3],1200 ng/mL
same,concentration at 3 h,[1]; [3],740 ng/mL
same,concentration at 5 h,[1]; [3],310 ng/mL
same,concentration at 7 h,[1]; [3],210 ng/mL
same,concentration at 24 h,[1]; [3],0 ng/mL
same,concentration at 30 h,[1]; [3],0 ng/mL
same,concentration at 48 h,[1]; [3],0 ng/mL
same,concentration at 0 h,[1]; [4],0 ng/mL
same,concentration at 1 h,[1]; [4],1100 ng/mL
same,concentration at 3 h,[1]; [4],800 ng/mL
same,concentration at 5 h,[1]; [4],400 ng/mL
same,concentration at 7 h,[1]; [4],260 ng/mL
same,concentration at 24 h,[1]; [4],0 ng/mL
same,concentration at 30 h,[1]; [4],0 ng/mL
same,concentration at 48 h,[1]; [4],0 ng/mL
same,Est.t1/2,[2],0.75 h
same,half-life,[2],0.75 h
same,concentration at 0 h,[2]; [5],0 ng/mL
same,concentration at 1 h,[2]; [5],460 ng/mL
same,concentration at 3 h,[2]; [5],60 ng/mL
same,concentration at 5 h,[2]; [5],0 ng/mL
same,concentration at 7 h,[2]; [5],0 ng/mL
same,concentration at 24 h,[2]; [5],0 ng/mL
same,concentration at 0 h,[2]; [6],0 ng/mL
same,concentration at 1 h,[2]; [6],440 ng/mL
same,concentration at 3 h,[2]; [6],84 ng/mL
same,concentration at 5 h,[2]; [6],0 ng/mL
same,concentration at 7 h,[2]; [6],0 ng/mL
same,concentration at 24 h,[2]; [6],0 ng/mL
"Cc1cc(Cc2cnc(N)nc2N)c2cccnc2c1N(C)C [Compound A, 2,4-diamino-5-(8-dimethylamino-7-methyl-5-quinolylmethyl) pyrimidine]",half-life,[1]; dogs,15 h
same,half-life in comparison with TMP,[1]; dogs,greatly extended half-life in comparison with TMP
same,concentration at 0 h,[1]; [7],0 ng/mL
same,concentration at 1 h,[1]; [7],410 ng/mL
same,concentration at 3 h,[1]; [7],340 ng/mL
same,concentration at 5 h,[1]; [7],300 ng/mL
same,concentration at 7 h,[1]; [7],290 ng/mL
same,concentration at 24 h,[1]; [7],124 ng/mL
same,concentration at 30 h,[1]; [7],100 ng/mL
same,concentration at 48 h,[1]; [7],46 ng/mL
same,concentration at 0 h,[1]; [8],0 ng/mL
same,concentration at 1 h,[1]; [8],240 ng/mL
same,concentration at 3 h,[1]; [8],270 ng/mL
same,concentration at 5 h,[1]; [8],260 ng/mL
same,concentration at 7 h,[1]; [8],250 ng/mL
same,concentration at 24 h,[1]; [8],110 ng/mL
same,concentration at 48 h,[1]; [8],39 ng/mL
same,Est.t1/2,[2],2.4 h
same,half-life,[2],2.4 h
same,concentration at 0 h,[2]; [9],0 ng/mL
same,concentration at 1 h,[2]; [9],320 ng/mL
same,concentration at 3 h,[2]; [9],160 ng/mL
same,concentration at 5 h,[2]; [9],100 ng/mL
same,concentration at 7 h,[2]; [9],72 ng/mL
same,concentration at 24 h,[2]; [9],0 ng/mL
same,concentration at 0 h,[2]; [10],0 ng/mL
same,concentration at 1 h,[2]; [10],310 ng/mL
same,concentration at 3 h,[2]; [10],140 ng/mL
same,concentration at 5 h,[2]; [10],86 ng/mL
same,concentration at 24 h,[2]; [10],0 ng/mL
